Assay results taken from EP0882734B1, “5'-Deoxy-cytidine derivatives” (F. Hoffmann-La Roche AG, priority 1997, dated 1998).
Marks after values point to notes of the source that are not given here.

Key:
[1] = mouse, in vivo, 420 min
Procedure: In this study, fluoropyrimidines, such as 5-FU, doxifluridine [5'-deoxy-5-fluorouridine] and capecitabine [5'-deoxy-5-fluoro-N^4-(n-pentyloxycarbonyl)cytidine], were given to BALB/c nude mice bearing the human gastric cancer xenograft MKN28 in combination with either compound A or 5-EU. Then, 5-FU levels in the plasma and tumor tissues were measured at 0.25, 0.5, 2, 4 and 7 hours after each fluoropyrimidine administration (n = 3 mice), and 5-FU AUC was calculated. […]

[2] = system: human prostate cancer xenograft PC-3; experiment: Enhancement of capecitabine antitumor activity in PC-3 xenograft; conditions: oral
Procedure: Compound A of Example 6 was examined for its activity to enhance the efficacy of capecitabine in BALB/c nude mice bearing the human prostate cancer xenograft PC-3. Compound A and capecitabine were orally given simultaneously or sequentially 5 successive days per week for 3 weeks starting on day 53 after the tumor inoculation when the tumor becomes palpable. On day 75, tumor volume gain and the percentage of the tumor growth inhibition were calculated.

[3] = Cytotoxicity of compound A itself (data not shown)
DPD [4] = target: T1, DPD (Mus musculus, UniProt Q8CHR6); experiment: DPD activity in liver and tumor tissues of PC-3 xenograft mice after administration; type: in vivo, BALB/c nude mice; conditions: Liver, Compound A 0.5 mmol/kg, 5-EU 0.05 µmol/kg
T1 construct: The liver and tumor tissues were resected out from each group of three mice; from tissue; host or cells: liver (mouse host) and PC-3 tumour xenograft tissue from BALB/c nude mice
T1 sequence (Q8CHR6 1-1025): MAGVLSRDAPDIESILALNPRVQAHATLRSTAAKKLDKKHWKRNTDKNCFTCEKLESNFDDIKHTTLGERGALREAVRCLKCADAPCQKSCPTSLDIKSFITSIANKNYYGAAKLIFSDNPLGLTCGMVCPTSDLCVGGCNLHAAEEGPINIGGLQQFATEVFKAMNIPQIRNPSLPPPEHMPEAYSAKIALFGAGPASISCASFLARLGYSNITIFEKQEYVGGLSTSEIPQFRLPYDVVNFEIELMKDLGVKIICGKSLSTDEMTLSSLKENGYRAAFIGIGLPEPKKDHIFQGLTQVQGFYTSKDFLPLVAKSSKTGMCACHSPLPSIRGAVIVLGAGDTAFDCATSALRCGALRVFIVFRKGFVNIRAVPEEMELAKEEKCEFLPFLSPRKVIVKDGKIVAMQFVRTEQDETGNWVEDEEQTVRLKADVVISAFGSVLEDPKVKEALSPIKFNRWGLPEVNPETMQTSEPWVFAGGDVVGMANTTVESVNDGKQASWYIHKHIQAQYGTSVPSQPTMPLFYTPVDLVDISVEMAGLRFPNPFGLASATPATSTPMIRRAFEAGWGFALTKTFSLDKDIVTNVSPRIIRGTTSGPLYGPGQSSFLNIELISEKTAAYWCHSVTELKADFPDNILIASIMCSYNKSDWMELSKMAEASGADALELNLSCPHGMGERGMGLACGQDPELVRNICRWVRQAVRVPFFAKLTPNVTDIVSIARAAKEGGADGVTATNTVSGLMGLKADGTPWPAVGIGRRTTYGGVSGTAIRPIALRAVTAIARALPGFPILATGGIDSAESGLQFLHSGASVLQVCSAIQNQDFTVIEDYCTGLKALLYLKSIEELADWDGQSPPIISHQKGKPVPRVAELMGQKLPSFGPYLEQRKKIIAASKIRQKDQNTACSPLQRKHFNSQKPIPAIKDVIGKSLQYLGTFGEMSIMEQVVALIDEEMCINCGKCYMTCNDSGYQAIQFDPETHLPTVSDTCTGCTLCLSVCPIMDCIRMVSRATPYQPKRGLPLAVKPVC
Procedure: (§1) The liver and tumor tissues were resected out from each group of three mice at 2 and 8 hours after the administration of the Compound A (0.5 mmol/kg) and 5-EU ([…]). DPD activity in these tissues was then measured as described elsewhere (Naguib et al., Cancer Research 45, 5405-5412, 1985). […] Table 1. Inhibition of DPD activity by Compound A of Example 6

DPD [5] = target: T2, DPD (Homo sapiens, UniProt Q12882); experiment: as above; type: in vivo, BALB/c nude mice; conditions: Tumor (PC-3), Compound A 0.5 mmol/kg, 5-EU 0.05 µmol/kg
T2 construct: The liver and tumor tissues were resected out from each group of three mice; from tissue; host or cells: liver (mouse host) and PC-3 tumour xenograft tissue from BALB/c nude mice
T2 sequence (Q12882 4-1025): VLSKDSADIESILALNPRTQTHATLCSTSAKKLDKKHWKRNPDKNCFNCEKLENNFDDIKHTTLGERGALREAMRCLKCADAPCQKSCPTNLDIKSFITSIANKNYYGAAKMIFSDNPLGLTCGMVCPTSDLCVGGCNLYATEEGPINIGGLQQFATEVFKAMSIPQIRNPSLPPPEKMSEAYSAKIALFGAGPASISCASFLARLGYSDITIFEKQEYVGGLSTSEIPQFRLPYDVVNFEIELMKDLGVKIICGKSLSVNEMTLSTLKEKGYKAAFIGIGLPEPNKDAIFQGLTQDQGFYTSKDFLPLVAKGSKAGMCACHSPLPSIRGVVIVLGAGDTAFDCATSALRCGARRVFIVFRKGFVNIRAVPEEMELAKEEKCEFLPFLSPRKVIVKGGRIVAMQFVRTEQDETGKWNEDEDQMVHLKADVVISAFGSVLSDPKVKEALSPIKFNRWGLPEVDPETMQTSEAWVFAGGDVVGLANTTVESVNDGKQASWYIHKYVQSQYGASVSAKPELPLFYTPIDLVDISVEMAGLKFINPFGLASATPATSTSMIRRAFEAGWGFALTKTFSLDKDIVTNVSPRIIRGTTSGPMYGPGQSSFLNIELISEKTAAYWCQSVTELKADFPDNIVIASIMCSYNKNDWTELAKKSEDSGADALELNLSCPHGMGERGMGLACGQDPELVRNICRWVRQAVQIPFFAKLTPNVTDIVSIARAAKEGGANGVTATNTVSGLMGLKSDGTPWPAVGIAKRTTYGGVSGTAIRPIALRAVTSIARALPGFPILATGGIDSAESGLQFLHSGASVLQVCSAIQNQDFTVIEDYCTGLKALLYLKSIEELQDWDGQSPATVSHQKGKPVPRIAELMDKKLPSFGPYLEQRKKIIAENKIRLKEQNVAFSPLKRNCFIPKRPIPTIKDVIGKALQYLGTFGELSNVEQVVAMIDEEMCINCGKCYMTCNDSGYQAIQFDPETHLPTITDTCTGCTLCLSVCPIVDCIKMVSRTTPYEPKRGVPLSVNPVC
Procedure: as §1

[6] = Capecitabine 1.0 mmol/kg/d + Compound A 1.0 µmol/kg/d given one hour prior to capecitabine
[7] = Capecitabine 1.0 mmol/kg/d + Compound A 1.0 µmol/kg/d given simultaneously
[8] = 2 hr after administration, control 288
[9] = 8 hr after administration, control 162
[10] = 2 hr after administration, control 31
[11] = 8 hr after administration, control 29

CCCCCOC(=O)Nc1nc(=O)n([C@@H]2O[C@H](C)[C@@H](O)[C@H]2O)cc1F [Capecitabine, 5'-deoxy-5-fluoro-N^4-(n-pentyloxycarbonyl)cytidine]
5-FU AUC Tumor [1]: 30 nmolohr/mL | Tumor growth inhibition (%) Day 75 ([2]; Capecitabine 1.0 mmol/kg/d alone, 5 successive days per week for 3 weeks): 23% | Tumor volume change (mm^3) Day 53-75 ([2]; Capecitabine 1.0 mmol/kg/d alone, 5 successive days per week for 3 weeks, control 981): 757 mm^3 | Body weight change (g) Day 75 ([2]; Capecitabine 1.0 mmol/kg/d alone, control -3.6): -3.4 g

C#Cc1cn([C@@H]2O[C@H](C)[C@@H](O)[C@H]2O)c(=O)nc1NC(=O)OCCCCC [Compound A, 5'-deoxy-5-ethynyl-N^4-(n-pentyloxycarbonyl)cytidine]
cytotoxicity [3]: not cytotoxic | Body weight change (g) Day 75 [2, 6]: -0.3 g | Tumor growth inhibition (%) Day 75 [2, 6]: 80% | Tumor volume change (mm^3) Day 53-75 ([2]; Capecitabine 1.0 mmol/kg/d + Compound A 1.0 µmol/kg/d given one hour prior to capecitabine, p < 0.05 vs control): 201* mm^3 | Body weight change (g) Day 75 [2, 7]: -1.8 g | Tumor growth inhibition (%) Day 75 [2, 7]: 67% | Tumor volume change (mm^3) Day 53-75 ([2]; Capecitabine 1.0 mmol/kg/d + Compound A 1.0 µmol/kg/d given simultaneously, p < 0.05 vs control): 323* mm^3 | DPD activities (DPD [4]; [8]): 177 pmol/mg protein/min | DPD activities (DPD [4]; [9]): 326 pmol/mg protein/min | DPD activities (DPD [5]; [10]): 9 pmol/mg protein/min | DPD activities (DPD [5]; [11]): 9 pmol/mg protein/min

C[C@H]1O[C@@H](n2cc(F)c(=O)[nH]c2=O)[C@H](O)[C@@H]1O [Doxifluridine, 5'-deoxy-5-fluorouridine]
5-FU AUC Plasma [1]: 2.6 nmolohr/mL | 5-FU AUC Tumor [1]: 8.0 nmolohr/mL

C#Cc1c[nH]c(=O)[nH]c1=O [Example 5-EU, 5-ethynyluracil]
DPD activities (DPD [4]; [8]): 46 pmol/mg protein/min | DPD activities (DPD [4]; [9]): 83 pmol/mg protein/min | DPD activities (DPD [5]; [10]): 17 pmol/mg protein/min | DPD activities (DPD [5]; [11]): 13 pmol/mg protein/min
